Measured values taken from patent US6403774B1, “Azoamidine compound” (Wako Pure Chemical Industries, Ltd., priority 2000, dated 2002).

Test: Thermal decomposition of the azo compound (10 hour half-life temperature, decomposition rate constant)
Format: physicochemical

2,2′-azobis[2-methyl-1-(1-pyrrolidinyl)iminopropane] hydrochloride [Example 1]
10 hour half-life temperature: 66.5 °C
Decomposition rate constant k60° C. (60° C.): 7.94e-06 s⁻¹
Decomposition rate constant k70° C. (70° C.): 3.03e-05 s⁻¹
Ea (decomposition kinetics): 30.39 kcal/mol
lnA (decomposition kinetics): 34.19
